Data taken from patent US20030004211A1, “Carbohydrate modifying agent and drinks containing the modifying agent” (priority 2001, published 2003).

Experiments:
[1] = test system: mutans streptococci; assay: in vitro growth and adherence of cariogenic bacteria (UCSF School of Preventive Dentistry study); type: cell-based; settings: 0.5% zinc solution
Text: (§1) In another preferred embodiment of the invention, the formulation includes one or more zinc salt or other source of the zinc ion. Metabolically, zinc is a critical nutrient in the synthesis of insulin and the metabolism of carbohydrates. From a dental perspective, cariogenic bacteria enzymatically produce an insoluble glucan deposit from simple sugars present in the mouth that firmly adheres to the enamel tooth surface.

[2] = test system: sobrinus streptococci; assay: as above; type: cell-based; settings: 0.5% zinc solution
Text: as §1

[Cl-].[Cl-].[Zn+2] [zinc chloride]
inhibited: adherence of mutans streptococci [1] | growth of mutans streptococci [1] | adherence of sobrinus streptococci [2] | growth of sobrinus streptococci [2]

zinc ascorbate
inhibited: adherence of mutans streptococci [1] | growth of mutans streptococci [1] | adherence of sobrinus streptococci [2] | growth of sobrinus streptococci [2]
